± gives the expanded uncertainty stated by the source.
Assay: xn = mol fraction of the nth substance listed
Conditions: 101 kPa, Liquid

CN1CCCC1=O [N-methylpyrrolidone] + Cc1ccccc1
Conditions	mass density [kg/m3]
293.15 K, x2 = 0	1032.66 ± 0.72
293.15 K, x2 = 0.0541	1024.34 ± 0.68
293.15 K, x2 = 0.1254	1013.29 ± 0.63
293.15 K, x2 = 0.1845	1004.06 ± 0.6
293.15 K, x2 = 0.2412	995.15 ± 0.62
293.15 K, x2 = 0.3154	983.34 ± 0.73
293.15 K, x2 = 0.3845	972.23 ± 0.84
293.15 K, x2 = 0.4521	961.22 ± 0.95
293.15 K, x2 = 0.5214	949.8 ± 1.1
293.15 K, x2 = 0.5865	938.94 ± 1.2
293.15 K, x2 = 0.6458	928.94 ± 1.3
293.15 K, x2 = 0.7124	917.57 ± 1.4
293.15 K, x2 = 0.7784	906.16 ± 1.5
293.15 K, x2 = 0.8425	894.94 ± 1.6
293.15 K, x2 = 0.9014	884.51 ± 1.8
293.15 K, x2 = 0.9784	870.71 ± 1.9
303.15 K, x2 = 0	1023.42 ± 0.66
303.15 K, x2 = 0.0482	1016 ± 0.63
303.15 K, x2 = 0.1235	1004.32 ± 0.57
303.15 K, x2 = 0.1856	994.6 ± 0.6
303.15 K, x2 = 0.2436	985.45 ± 0.68
303.15 K, x2 = 0.3145	974.17 ± 0.79
303.15 K, x2 = 0.3854	962.74 ± 0.9
303.15 K, x2 = 0.4521	951.88 ± 1
303.15 K, x2 = 0.5236	940.09 ± 1.1
303.15 K, x2 = 0.5852	929.81 ± 1.2
303.15 K, x2 = 0.6451	919.71 ± 1.3
303.15 K, x2 = 0.7145	907.86 ± 1.4
303.15 K, x2 = 0.7854	895.61 ± 1.6
303.15 K, x2 = 0.8541	883.57 ± 1.7
303.15 K, x2 = 0.9015	875.19 ± 1.8
303.15 K, x2 = 0.9789	861.34 ± 1.9
313.15 K, x2 = 0	1014.27 ± 0.6
313.15 K, x2 = 0.0522	1006.21 ± 0.57
313.15 K, x2 = 0.1257	994.77 ± 0.58
313.15 K, x2 = 0.1901	984.67 ± 0.67
313.15 K, x2 = 0.2401	976.76 ± 0.74
313.15 K, x2 = 0.321	963.85 ± 0.85
313.15 K, x2 = 0.3952	951.86 ± 0.97
313.15 K, x2 = 0.4654	940.38 ± 1.1
313.15 K, x2 = 0.5321	929.35 ± 1.2
313.15 K, x2 = 0.5984	918.25 ± 1.3
313.15 K, x2 = 0.6541	908.84 ± 1.4
313.15 K, x2 = 0.7248	896.74 ± 1.5
313.15 K, x2 = 0.7895	885.54 ± 1.6
313.15 K, x2 = 0.8412	876.51 ± 1.7
313.15 K, x2 = 0.9215	862.31 ± 1.9
313.15 K, x2 = 0.9759	852.57 ± 2
323.15 K, x2 = 0	1005.62 ± 0.55
323.15 K, x2 = 0.0487	998.04 ± 0.54
323.15 K, x2 = 0.1147	987.71 ± 0.62
323.15 K, x2 = 0.1789	977.59 ± 0.7
323.15 K, x2 = 0.2365	968.43 ± 0.78
323.15 K, x2 = 0.2987	958.46 ± 0.87
323.15 K, x2 = 0.3695	947 ± 0.98
323.15 K, x2 = 0.4351	936.27 ± 1.1
323.15 K, x2 = 0.4954	926.31 ± 1.2
323.15 K, x2 = 0.5654	914.62 ± 1.3
323.15 K, x2 = 0.6215	905.15 ± 1.4
323.15 K, x2 = 0.6945	892.69 ± 1.5
323.15 K, x2 = 0.7658	880.39 ± 1.6
323.15 K, x2 = 0.8321	868.8 ± 1.8
323.15 K, x2 = 0.9201	853.23 ± 1.9
323.15 K, x2 = 0.9758	843.26 ± 2
333.15 K, x2 = 0	996.28 ± 0.54
333.15 K, x2 = 0.0478	988.83 ± 0.59
333.15 K, x2 = 0.1102	979.04 ± 0.67
333.15 K, x2 = 0.1874	966.85 ± 0.77
333.15 K, x2 = 0.2451	957.65 ± 0.85
333.15 K, x2 = 0.3147	946.45 ± 0.95
333.15 K, x2 = 0.3984	932.84 ± 1.1
333.15 K, x2 = 0.4682	921.37 ± 1.2
333.15 K, x2 = 0.5321	910.74 ± 1.3
333.15 K, x2 = 0.5984	899.6 ± 1.4
333.15 K, x2 = 0.6541	890.15 ± 1.5
333.15 K, x2 = 0.7241	878.16 ± 1.6
333.15 K, x2 = 0.7985	865.26 ± 1.8
333.15 K, x2 = 0.8541	855.52 ± 1.9
333.15 K, x2 = 0.921	843.69 ± 2
333.15 K, x2 = 0.98	833.15 ± 2.1
343.15 K, x2 = 0	987.39 ± 0.59
343.15 K, x2 = 0.0512	979.36 ± 0.65
343.15 K, x2 = 0.1245	967.81 ± 0.75
343.15 K, x2 = 0.1895	957.47 ± 0.83
343.15 K, x2 = 0.246	948.41 ± 0.91
343.15 K, x2 = 0.3124	937.69 ± 1
343.15 K, x2 = 0.3841	926 ± 1.1
343.15 K, x2 = 0.4514	914.91 ± 1.2
343.15 K, x2 = 0.5214	903.26 ± 1.3
343.15 K, x2 = 0.5954	890.81 ± 1.4
343.15 K, x2 = 0.6598	879.85 ± 1.6
343.15 K, x2 = 0.7214	869.28 ± 1.7
343.15 K, x2 = 0.7954	856.43 ± 1.8
343.15 K, x2 = 0.8596	845.17 ± 1.9
343.15 K, x2 = 0.9214	834.23 ± 2
343.15 K, x2 = 0.9788	823.98 ± 2.1
353.15 K, x2 = 0	978.62 ± 0.65
353.15 K, x2 = 0.0821	965.64 ± 0.75
353.15 K, x2 = 0.1337	957.42 ± 0.82
353.15 K, x2 = 0.1993	946.92 ± 0.9
353.15 K, x2 = 0.2646	936.37 ± 0.99
353.15 K, x2 = 0.3306	925.62 ± 1.1
353.15 K, x2 = 0.3965	914.8 ± 1.2
353.15 K, x2 = 0.4514	905.7 ± 1.3
353.15 K, x2 = 0.5214	894 ± 1.4
353.15 K, x2 = 0.5984	880.99 ± 1.5
353.15 K, x2 = 0.6514	871.96 ± 1.6
353.15 K, x2 = 0.7214	859.91 ± 1.7
353.15 K, x2 = 0.7984	846.52 ± 1.9
353.15 K, x2 = 0.858	836.05 ± 2
353.15 K, x2 = 0.9265	823.91 ± 2.1
353.15 K, x2 = 0.9799	814.38 ± 2.2

Source: the NIST ThermoML archive (doi:10.1016/j.jct.2006.05.006)
